Source: patent publication US10543249B2, “Pharmaceutical composition for a sustained release of lanreotide” (IPSEN PHARMA S.A.S., priority 2013, dated 2020)

Assay: Solubility of lanreotide acetate
Format: physicochemical
Description: The term “co-solvent” as used in the present application refers to a solvent or a mixture of solvents which allows the incorporation of the active ingredient in the composition to obtain the required dose in a suitable volume and matching the injectability criteria.
A composition according to the present invention comprises a co-solvent which allows obtaining the required injectability criteria of the pharmaceutical compositions. The co-solvent used in the composition according to the present invention is hydrosoluble. Moreover, the solubility, in the hydrosoluble co-solvent, of lanreotide or its salts used according to the present invention is equal or higher than 8% (w/v) at room temperature. For comparison, the solubility of lanreotide acetate is less than 4% in water, aqueous acetic acid (at the concentration of 0.1 or 1 mol/mL), aqueous NaCl (0.9%), or polysorbate (0.01%).

Measured: solubility of lanreotide acetate

CC(C)[C@@H]1NC(=O)[C@H](CCCCN)NC(=O)[C@@H](Cc2c[nH]c3ccccc23)NC(=O)[C@H](Cc2ccc(O)cc2)NC(=O)[C@@H](NC(=O)[C@H](N)Cc2ccc3ccccc3c2)CSSC[C@@H](C(=O)N[C@H](C(N)=O)[C@@H](C)O)NC1=O [lanreotide acetate]
less than 4%: in aqueous NaCl (0.9%) | in aqueous acetic acid (at the concentration of 0.1 or 1 mol/mL) | in polysorbate (0.01%) | in water
